Patent publication US11945781B2, “Compounds for the treatment of acute and chronic kidney disease” (Southern Research Institute, priority 2020, dated 2024)
Read-outs that look alike come from different tables or passages of the source.

Test system: heme oxygenase-1 (HO-1)
Assay: HO-1 promoter luciferase reporter screen (pHOGL3/4.5+220 stable HEK293 cells)
Type: cell-based, human
Details: Table 1; for Emax: HEK293, Emax as % of 5 μM hemin; for EC50: evaluation of thioquinolinones, HEK293 HO-1 reporter
Description: The generation of the pHOGL3/4.5+220 construct is described in Deshane, et al. (2010) “SpI regulates chromatin looping between an intronic enhancer and distal promoter of the human heme oxygenase-1 gene in renal cells” J Biol Chem 285(22): 16476-86. See also FIG. 1.
Briefly, BamHI sites were added to the 4.5-kb PCR product generated by long-range PCR from a bacterial artificial chromosome clone containing portions of chromosome 22 (accession no. Z82244), including the HO-1 gene. This fragment was cloned into the Bg/II restriction site of the multiple cloning region to make the parental clone (pHOGL3/4.5). The 220-bp intronic enhancer was amplified with SalI sites on either end and cloned into the SalI site of the vector to generate pHOGL3/4.5+220.
In order to generate cells that stably express luciferase expression vectors that lack a mammalian antibiotic selection cassette, HEK293 cells were co-transfected with either pHOGL3/4.5+220 (Deshane et al, 2010) or the Triple Mutant construct (Liby, Hock et al, 2005; Hock et al, 2007) and pcDNA3.1 Zeocin using Lipofectamine 2000. Cells were cultured in Zeocin (400 ug/ml; Invitrogen) for selection. Individual clones were sorted by flow cytometry and plated into a 96-well plate at a density of one cell per well. Clones were maintained and expanded in complete media (DMEM/10% FBS/1× antibiotic-antimycotic) supplemented with 100 ug/ml Zeocin, and incubated at 37° C. in 5% carbon dioxide. Incorporation of the Luciferase expression vectors was validated by assaying for luciferase. […]

| SMILES | EC50 (Homo sapiens, read-out: EC50) [nM] | EC50 | Emax (Homo sapiens) [%] |
| --- | --- | --- | --- |
| Oc1ccc(CSc2cccc3cccnc23)cc1 [Compound 2] | 340 | – | 127 |
| Oc1ccc(CSc2cccc3cccnc23)cc1Cl [Compound 4] | 340 | – | 106 |
| Oc1c(F)c(F)c(CSc2cccc3cccnc23)c(F)c1F [Compound 6] | 1050 | – | 113 |
| Oc1ccc(COc2cccc3cccnc23)cc1 [Compound 11] | – | Inactive | – |
| Oc1ccc(CSc2cccc3cccnc23)cc1 [Compound 14] | – | Inactive | – |
| Oc1c(F)cc(CSc2ccnc3ccccc23)cc1F [Compound 15] | – | Inactive | – |
| Oc1c(F)cc(CSc2nccc3ccccc23)cc1F [Compound 16] | – | Inactive | – |
| Oc1c(F)cc(CSc2ccncc2)cc1F [Compound 17] | – | Inactive | – |
| Oc1c(F)cc(CSc2cccc3ccccc23)cc1F [Compound 18] | – | Inactive | – |
| O=S(=O)(Nc1cc(F)c(O)c(F)c1)c1cccc2cccnc12 [Compound 21] | – | Inactive | – |
| O=C(Nc1cccc2cccnc12)c1cc(F)c(O)c(F)c1 [Compound 22] | – | Inactive | – |
| O=C(Nc1cc(F)c(O)c(F)c1)c1cccc2cccnc12 [Compound 23] | – | Inactive | – |

Continued, in another order:

| EC50 (Homo sapiens, read-out: EC50) [nM] | EC50 | SMILES | Emax (Homo sapiens) [%] |
| --- | --- | --- | --- |
| 430 | – | Oc1c(F)cc(CSc2cccc3cccnc23)cc1F [Compound 1, 2,6-difluoro-4-((quinolin-8-ylthio)methyl)phenol] | 154 |
| 200 | – | Oc1ccc(CSc2cccc3cccnc23)cc1F [Compound 3] | 83.7 |
| 420 | – | Oc1c(F)cc(CSc2cccc3cccnc23)cc1Cl [Compound 5] | 113 |
| 5250 | – | Oc1c(F)cc(F)cc1CSc1cccc2cccnc12 [Compound 7] | 55.2 |
| – | Inactive | Fc1cc(F)cc(CSc2cccc3cccnc23)c1 [Compound 8] | – |
| 340 | – | [O-][S+](Cc1cc(F)c(O)c(F)c1)c1cccc2cccnc12 (stereo not drawn) [Compound 9] | 106 |
| – | Inactive | O=S(=O)(Cc1cc(F)c(O)c(F)c1)c1cccc2cccnc12 [Compound 10] | – |
| – | Inactive | Oc1c(F)cc(CCSc2cccc3cccnc23)cc1F [Compound 12] | – |
| 19000 | – | Oc1ccc(CCSc2cccc3cccnc23)cc1 [Compound 13] | 122 |
| – | Inactive | COc1c(F)cc(CSc2cccc3cccnc23)cc1F [Compound 19, 8-((3,5-difluoro-4-methoxybenzyl)thio)quinolone] | – |
| 20000 | – | COc1c(F)cc(CCSc2cccc3cccnc23)cc1F [Compound 20] | 69.9 |
